{"source": "patent US20080227801A1", "about": "“Pharmaceutical Compositions Containing Erythrina Mulungu Derivatives, Processes for their Production and Uses Thereof” (priority 2005, published 2008)", "type_in_all_cases": "in vivo, Swiss mice", "key": {"[1]": {"test_system": "house mice", "assay": "Labyrinth in high T (elevated T maze) test", "design": "key to Escape: latency in seconds (maximum 300 s)", "details": "for Anxiolytic effect in Labyrinth in high T (in words): 3 and 10 mg/kg, oral via; for Escape / Inhibitory avoidance E1 / Inhibitory avoidance LB (basal latency) / Inhibitory avoidance E2 / Inhibitory avoidance E3 / Inhibitory avoidance E4: acute, mean ± EPM", "procedure": "Swiss mice weighing 25-35 g from the central animal laboratory of the Sao Paulo State University (UNESP/Araraquara) were used.\nAccordingly, lyophilized hydroalcoholic extract (50, 100, 200 and 400 mg/kg) was used, in addition to F2 (3, 6, 10, 17 and 30 mg/kg) and the alkaloids erythrartine, erythravine and 11-OH-erythravine (3 and 10 mg/kg), administered via oral intake by gavage. The standard drug used was Diazepam (DZP) in a dose of 2 mg/kg (via intraperitoneal, i.p).\nThe Labyrinth in high T is made with transparent glass walls and wooden floor and consists of a closed arm (30×5×15 cm) perpendicularly linked to two open arms (30×5×0.25 cm), raised at 38.5 cm above the floor by a wooden support. In this test, five consecutive measures of inhibitory avoidance were performed (basal latency, avoidances 1, 2, 3 and 4) and one measure of escape from the open arms, with intervals of 30 seconds between each attempt. In the avoidance measures, the animals were placed in the distal section of the closed arm and the exit latency of this arm, on all four paws, towards the open arm was timed. In the escape measure, the animals were placed in the extremity of the right-hand open arm and the departure time from this arm was measured. The animals' maximum length of stay in the arms of the maze during these measures was 300 seconds. The apparatus was cleaned with ethanol 20% after testing each animal.\nThe results obtained from the Labyrinth in high T submitted to a two-way analysis of variance (ANOVA), with treatment being an independent factor and attempts being a dependent factor."}, "[2]": {"test_system": "house mouse", "assay": "Clear-dark (light/dark) transition model", "details": "for Number of transitions between two compartments / Time spent in illuminated compartment: acute, mean ± EPM; for Effect on time spent in illuminated compartment (in words): versus control; for Anxiolytic effect in clear-dark model transition (in words): oral via, doses of 3 and 10 mg/kg"}, "[3]": {"test_system": "house mouse", "assay": "Locomotion activity test in the arena", "source_text": "In order to avoid false positives or negatives, immediately after testing in the elevated T maze, the animals were submitted to the locomotive activity test in the arena.\nThe apparatus consists of a white polypropylene box with a rectangular base (40×48 cm), surrounded by 30 cm high walls. The floor is subdivided into 30 squares (8×8 cm).\nIn this test, the animals were placed in the center of the box and their activity was video recorded for five minutes, for subsequent analysis of the number of crossings of the quadrant areas and number of stretch-attend postures (WALSH and CUMMINS, 1976).\nThe results obtained with the arena were submitted to a one-way ANOVA followed by the Duncan post hoc test."}, "[4]": {"details": "3 and 10 mg/kg oral, one-way ANOVA"}, "[5]": {"details": "2 mg/kg i.p., acute, five minutes, mean ± EPM"}}, "note": "Values joined by “and” are separate entries in the source; they are usually repeats but may differ in a detail not shown here. Identical values can stand only once. “Also recorded” adds a separate entry of the source.", "data": [{"smiles": "COc1cc2c(cc1OC)[C@]13C[C@@H](OC)C=CC1=CCN3C[C@H]2O", "note": "[ERIT, erythrartine]", "values": [{"measurement": "Anxiolytic effect in Labyrinth in high T (in words)", "setting": "[1]", "value": "anxiolytic effect"}, {"measurement": "Number of transitions between two compartments", "setting": "[2]; 3 mg/kg oral", "value": "13.00 ± 1.56"}, {"measurement": "Time spent in illuminated compartment", "setting": "[2]; 3 mg/kg oral", "value": "67.67 ± 8.33"}, {"measurement": "Number of transitions between two compartments", "setting": "[2]; 10 mg/kg oral", "value": "14.25 ± 1.59"}, {"measurement": "Time spent in illuminated compartment", "setting": "[2]; 10 mg/kg oral", "value": "83.42 ± 14.17"}, {"measurement": "Effect on number of transitions between two compartments (in words)", "setting": "[2]; [4]", "value": "did not show signified effect"}]}, {"smiles": "CN1C(=O)CN=C(c2ccccc2)c2cc(Cl)ccc21", "note": "[DZP, Diazepam, reference compound]", "values": [{"measurement": "Escape", "setting": "[1]; 2 mg/kg i.p.", "value": "19.0 ± 3.2 and 28.4 ± 7.1 and 27.1 ± 4.6"}, {"measurement": "Inhibitory avoidance E1", "setting": "[1]; 2 mg/kg i.p.", "value": "15.3 ± 3.8 and 19.1 ± 4.0 and 11.4 ± 1.4"}, {"measurement": "Inhibitory avoidance LB (basal latency)", "setting": "[1]; 2 mg/kg i.p.", "value": "24.6 ± 4.1 and 25.4 ± 4.1 and 25.6 ± 5.9"}, {"measurement": "Mixings", "setting": "[3]; [5]", "value": "167.4 ± 23.6 and 169.11 ± 33.2"}, {"measurement": "Raisings", "setting": "[3]; [5]", "value": "27.33 ± 2.3 and 21.11 ± 6.7"}, {"measurement": "Number of transitions between two compartments", "setting": "[2]; 2 mg/kg i.p.", "value": "20.10 ± 2.93 and 13.92 ± 1.34 and 17.42 ± 2.40"}, {"measurement": "Time spent in illuminated compartment", "setting": "[2]; 2 mg/kg i.p.", "value": "144.20 ± 17.52 and 130.00 ± 16.76 and 140.67 ± 18.59"}, {"measurement": "Effect on time spent in illuminated compartment (in words)", "setting": "[2]; DZP 2 mg/kg", "value": "expressively greater; also recorded: increased expressively; also recorded: observed only for the animals group treated with DZP"}]}, {"smiles": "COc1cc2c(cc1OC)[C@]13C[C@@H](O)C=CC1=CCN3C[C@H]2O", "note": "[11-OH, 11-hydroxy-erythravine]", "values": [{"measurement": "Escape", "setting": "[1]; 3 mg/kg oral", "value": "21.5 ± 3.7"}, {"measurement": "Inhibitory avoidance E1", "setting": "[1]; 3 mg/kg oral", "value": "41.8 ± 14.2"}, {"measurement": "Inhibitory avoidance E2", "setting": "[1]; 3 mg/kg oral", "value": "96.0 ± 34.4"}, {"measurement": "Inhibitory avoidance E3", "setting": "[1]; 3 mg/kg oral", "value": "132.3 ± 39.7"}, {"measurement": "Inhibitory avoidance E4", "setting": "[1]; 3 mg/kg oral", "value": "194.4 ± 39.5"}, {"measurement": "Inhibitory avoidance LB (basal latency)", "setting": "[1]; 3 mg/kg oral", "value": "30.7 ± 5.8"}, {"measurement": "Escape", "setting": "[1]; 10 mg/kg oral", "value": "26.8 ± 4.8"}, {"measurement": "Inhibitory avoidance E1", "setting": "[1]; 10 mg/kg oral", "value": "30.0 ± 6.1"}, {"measurement": "Inhibitory avoidance E2", "setting": "[1]; 10 mg/kg oral", "value": "54.0 ± 21.1"}, {"measurement": "Inhibitory avoidance E3", "setting": "[1]; 10 mg/kg oral", "value": "66.6 ± 30.3"}, {"measurement": "Inhibitory avoidance E4", "setting": "[1]; 10 mg/kg oral", "value": "94.8 ± 31.7"}, {"measurement": "Inhibitory avoidance LB (basal latency)", "setting": "[1]; 10 mg/kg oral", "value": "22.6 ± 3.5"}, {"measurement": "Anxiolytic effect in Labyrinth in high T (in words)", "setting": "[1]", "value": "anxiolytic effect"}, {"measurement": "Response on the locomotion activity test at the arena (in words)", "setting": "[3]; 3 mg/kg", "value": "did not have an increase of the response"}, {"measurement": "Number of transitions between two compartments", "setting": "[2]; 3 mg/kg oral", "value": "22.67 ± 2.66"}, {"measurement": "Time spent in illuminated compartment", "setting": "[2]; 3 mg/kg oral", "value": "98.67 ± 13.35"}, {"measurement": "Number of transitions between two compartments", "setting": "[2]; 10 mg/kg oral", "value": "14.00 ± 1.93"}, {"measurement": "Time spent in illuminated compartment", "setting": "[2]; 10 mg/kg oral", "value": "127.22 ± 21.83"}, {"measurement": "Effect on number of transitions between two compartments (in words)", "setting": "[2]; dose of 3 mg/kg, P<0.05, listed as 11-hidroxi-erhytravine, 3 mg/kg", "value": "increased the transitions"}, {"measurement": "Effect on number of transitions between two compartments (in words)", "setting": "[2]; dose of 3 mg/kg, P<0.05, listed as 11-hidroxi-erythravine, 3 mg/kg", "value": "increased"}, {"measurement": "Effect on time spent in illuminated compartment (in words)", "setting": "[2]; dose of 10 mg/kg, listed as 11-hidroxi-erhytravine, 10 mg/kg", "value": "anxiolytic effect"}, {"measurement": "Effect on time spent in illuminated compartment (in words)", "setting": "[2]; dose of 10 mg/kg, listed as 11-hidroxi-erythravine, 10 mg/kg", "value": "increased expressively"}, {"measurement": "Anxiolytic effect in clear-dark model transition (in words)", "setting": "[2]", "value": "anxiolytic effect"}]}, {"smiles": "COc1cc2c(cc1OC)[C@]13C[C@@H](O)C=CC1=CCN3CC2", "note": "[ERI, erythravine]", "values": [{"measurement": "Anxiolytic effect in Labyrinth in high T (in words)", "setting": "[1]", "value": "anxiolytic effect"}, {"measurement": "Number of transitions between two compartments", "setting": "[2]; 3 mg/kg oral", "value": "19.70 ± 2.96"}, {"measurement": "Time spent in illuminated compartment", "setting": "[2]; 3 mg/kg oral", "value": "115.40 ± 18.58"}, {"measurement": "Number of transitions between two compartments", "setting": "[2]; 10 mg/kg oral", "value": "19.80 ± 1.32"}, {"measurement": "Time spent in illuminated compartment", "setting": "[2]; 10 mg/kg oral", "value": "112.00 ± 10.95"}, {"measurement": "Effect on number of transitions between two compartments (in words)", "setting": "[2]; [4]", "value": "did not show significant differences between groups"}, {"measurement": "Effect on time spent in illuminated compartment (in words)", "setting": "[2]; oral doses of 3 mg/kg and 10 mg/kg", "value": "expressively greater; also recorded: anxiolytic effect"}, {"measurement": "Anxiolytic effect in clear-dark model transition (in words)", "setting": "[2]", "value": "anxiolytic effect"}]}]}
